Blank lines part the entries; values can stand above or below the compound they belong to.
How the values were obtained:
human Nav1.1 = molecular target: T1, human Nav1.1 (Homo sapiens, UniProt P35498); assay: Amplification of Nav1.1-derived voltage-dependent sodium current (Nav1.1 current), cell line stably expressing human Nav1.1, automated patch clamp; type: cell-based; conditions: 10 μmol/L compound, change of the area under the curve of Nav1.1 current (Test Result 1)
T1 construct: host or cells: HEK293
Outline: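 Automated whole-cell voltage-clamp recordings used HEK293 cells stably expressing human Nav1.1, keeping only cells with >500 pA current, with currents evoked by ramp voltage. Compounds were applied in extracellular fluid with 1% DMSO, and amplification (%) was computed from peak current or AUC after versus before addition.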

human Nav1.5 = molecular target: T2, human Nav1.5 (Homo sapiens, UniProt Q14524); assay: Amplification of Nav1.5-derived voltage-dependent sodium current (Nav1.5 current), cell line stably expressing human Nav1.5, automated patch clamp; type: cell-based; conditions: 10 μmol/L compound, change of the area under the curve of Nav1.5 current (Test Result 1)
T2 construct: expressed in transfected cells; host or cells: CHO-K1 (T-REx System, ThermoFisher Scientific)
T2 sequence (Q14524 1-2015 isoform Q14524-2): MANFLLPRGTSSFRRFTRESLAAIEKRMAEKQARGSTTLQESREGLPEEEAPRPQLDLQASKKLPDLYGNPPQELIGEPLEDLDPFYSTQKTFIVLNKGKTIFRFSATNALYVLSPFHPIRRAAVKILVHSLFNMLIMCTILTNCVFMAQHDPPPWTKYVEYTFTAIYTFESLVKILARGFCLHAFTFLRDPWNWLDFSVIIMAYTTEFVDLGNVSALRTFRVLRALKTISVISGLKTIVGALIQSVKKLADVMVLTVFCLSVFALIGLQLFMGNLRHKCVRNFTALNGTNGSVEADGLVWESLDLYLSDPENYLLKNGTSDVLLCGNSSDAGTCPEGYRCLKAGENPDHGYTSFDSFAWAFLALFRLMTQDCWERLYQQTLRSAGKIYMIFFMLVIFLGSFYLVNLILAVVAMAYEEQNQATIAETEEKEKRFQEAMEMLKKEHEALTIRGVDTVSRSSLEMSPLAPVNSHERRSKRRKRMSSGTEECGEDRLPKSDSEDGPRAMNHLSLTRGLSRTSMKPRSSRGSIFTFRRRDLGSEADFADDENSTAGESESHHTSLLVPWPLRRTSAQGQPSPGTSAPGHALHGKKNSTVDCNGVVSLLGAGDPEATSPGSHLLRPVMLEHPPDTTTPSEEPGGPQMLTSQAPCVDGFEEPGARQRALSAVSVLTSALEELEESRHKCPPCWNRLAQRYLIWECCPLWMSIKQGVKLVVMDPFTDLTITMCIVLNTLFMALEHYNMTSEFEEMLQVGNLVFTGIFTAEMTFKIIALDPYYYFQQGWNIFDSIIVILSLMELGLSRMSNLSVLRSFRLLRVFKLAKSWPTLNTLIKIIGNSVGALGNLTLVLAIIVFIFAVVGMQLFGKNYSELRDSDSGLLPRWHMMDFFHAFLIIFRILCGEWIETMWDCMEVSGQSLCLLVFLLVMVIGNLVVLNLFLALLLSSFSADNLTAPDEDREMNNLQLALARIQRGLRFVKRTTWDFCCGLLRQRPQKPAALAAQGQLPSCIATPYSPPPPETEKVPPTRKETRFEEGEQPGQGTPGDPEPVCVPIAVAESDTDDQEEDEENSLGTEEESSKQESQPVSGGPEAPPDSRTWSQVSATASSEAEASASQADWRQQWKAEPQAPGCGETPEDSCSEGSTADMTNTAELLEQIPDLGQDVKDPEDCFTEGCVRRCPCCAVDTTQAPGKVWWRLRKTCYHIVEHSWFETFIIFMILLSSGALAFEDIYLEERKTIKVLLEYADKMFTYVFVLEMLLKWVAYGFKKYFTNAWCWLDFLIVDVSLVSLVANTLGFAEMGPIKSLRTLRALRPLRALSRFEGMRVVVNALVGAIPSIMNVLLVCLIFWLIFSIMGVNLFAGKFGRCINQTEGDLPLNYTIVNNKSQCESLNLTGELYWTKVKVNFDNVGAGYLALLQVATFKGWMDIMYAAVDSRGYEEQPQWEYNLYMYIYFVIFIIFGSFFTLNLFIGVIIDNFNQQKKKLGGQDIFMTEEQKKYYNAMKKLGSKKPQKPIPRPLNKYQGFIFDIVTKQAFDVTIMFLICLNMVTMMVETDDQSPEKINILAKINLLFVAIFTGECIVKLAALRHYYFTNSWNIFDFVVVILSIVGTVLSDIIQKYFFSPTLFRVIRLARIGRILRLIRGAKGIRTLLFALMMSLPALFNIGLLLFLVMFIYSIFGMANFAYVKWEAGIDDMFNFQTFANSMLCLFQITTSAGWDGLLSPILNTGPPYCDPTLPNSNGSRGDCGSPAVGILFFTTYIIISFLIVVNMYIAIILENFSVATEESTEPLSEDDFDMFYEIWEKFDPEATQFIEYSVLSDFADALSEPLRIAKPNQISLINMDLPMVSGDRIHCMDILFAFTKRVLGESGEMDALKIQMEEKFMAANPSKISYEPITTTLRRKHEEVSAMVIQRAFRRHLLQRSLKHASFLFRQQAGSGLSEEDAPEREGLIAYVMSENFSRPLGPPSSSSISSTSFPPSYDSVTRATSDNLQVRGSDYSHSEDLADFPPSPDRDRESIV

SMILES: COc1cc(C2=CCC(C(F)(F)F)CC2)nn(CC(=O)Nc2ccc3ocnc3c2)c1=O (centres unmarked) [Example 447]
Nav1.1 current amplification rate (%) (human Nav1.1): 148% | Nav1.5 current amplification rate (%) (human Nav1.5): 6%

SMILES: COc1cc(=O)n(CC(=O)Nc2ccc3ocnc3c2)nc1C1=CCC(C(F)(F)F)CC1 (centres unmarked) [Example 450]
Nav1.1 current amplification rate (%) (human Nav1.1): 187% | Nav1.5 current amplification rate (%) (human Nav1.5): 5%

SMILES: COc1cc(C2=CCC(C)(C)CC2)nn(CC(=O)Nc2ccn3ccnc3c2)c1=O [Example 456]
Nav1.1 current amplification rate (%) (human Nav1.1): 224% | Nav1.5 current amplification rate (%) (human Nav1.5): 29%

SMILES: O=C(Cn1nc(C2=CCCCC2)ccc1=O)Nc1ccn2ccnc2c1 [Example 458]
Nav1.1 current amplification rate (%) (human Nav1.1): 24% | Nav1.5 current amplification rate (%) (human Nav1.5): 0%

SMILES: COc1cc(=O)n(CC(=O)Nc2ccn3ccnc3c2)nc1C1=CCC(C)(C)CC1 [Example 459]
Nav1.1 current amplification rate (%) (human Nav1.1): 118% | Nav1.5 current amplification rate (%) (human Nav1.5): 21%

SMILES: Cc1cc(C2=CCC(C)(C)CC2)nn(CC(=O)Nc2ccn3ccnc3c2)c1=O [Example 460]
Nav1.1 current amplification rate (%) (human Nav1.1): 221% | Nav1.5 current amplification rate (%) (human Nav1.5): 46%

SMILES: Cc1cc(=O)n(CC(=O)Nc2ccn3ccnc3c2)nc1C1=CCC(C)(C)CC1 [Example 461]
Nav1.1 current amplification rate (%) (human Nav1.1): 337% | Nav1.5 current amplification rate (%) (human Nav1.5): 50%

SMILES: COc1cc(C2=CCC(C(F)(F)F)CC2)nn(CC(=O)Nc2ccn3ccnc3c2)c1=O (centres unmarked) [Example 462]
Nav1.1 current amplification rate (%) (human Nav1.1): 124% | Nav1.5 current amplification rate (%) (human Nav1.5): 5%

SMILES: COc1cc(C2=CCC(C)CC2)nn(CC(=O)Nc2ccn3ccnc3c2)c1=O (centres unmarked) [Example 463]
Nav1.1 current amplification rate (%) (human Nav1.1): 218% | Nav1.5 current amplification rate (%) (human Nav1.5): 9%

SMILES: O=C(Cn1nc(C2=CCC(F)(F)CC2)ccc1=O)Nc1ccn2ccnc2c1 [Example 464]
Nav1.1 current amplification rate (%) (human Nav1.1): 18% | Nav1.5 current amplification rate (%) (human Nav1.5): 1%

SMILES: CC1(C)CC=C(c2ccc(=O)n(CC(=O)Nc3ccn4ccnc4c3)n2)C1 [Example 465]
Nav1.1 current amplification rate (%) (human Nav1.1): 186% | Nav1.5 current amplification rate (%) (human Nav1.5): 8%

Further lines, with some results ahead:

activation at 10 µM (human Nav1.1; read-out: Nav1.1 current amplification rate (%)): 320%
SMILES: CC1(C)CC=C(c2ccc(=O)n(CC(=O)Nc3ccc4ocnc4c3)n2)CC1 [Example 445, N-(1,3-benzooxazol-5-yl)-2-[3-(4,4-dimethylcyclohex-1-en-1-yl)-6-oxopyridazin-1(6H)-yl]acetamide]
activation at 10 µM (human Nav1.5; read-out: Nav1.5 current amplification rate (%)): 52%

Nav1.1 current amplification rate (%) (human Nav1.1): 333%
SMILES: O=C(Cn1nc(C2=CCC(C(F)(F)F)CC2)ccc1=O)Nc1ccc2ocnc2c1 (centres unmarked) [Example 446]
Nav1.5 current amplification rate (%) (human Nav1.5): 10%

Nav1.1 current amplification rate (%) (human Nav1.1): 250%
SMILES: COc1cc(C2=CCC(C)CC2)nn(CC(=O)Nc2ccc3ocnc3c2)c1=O (centres unmarked) [Example 449]
Nav1.5 current amplification rate (%) (human Nav1.5): 12%

Nav1.1 current amplification rate (%) (human Nav1.1): 365%
SMILES: COc1cc(=O)n(CC(=O)Nc2ccc3ocnc3c2)nc1C1=CCC(C)(C)CC1 [Example 451]
Nav1.5 current amplification rate (%) (human Nav1.5): 30%

Nav1.1 current amplification rate (%) (human Nav1.1): 10%
SMILES: Cc1ccc(-c2ccc(=O)n(CC(=O)Nc3ccc4ocnc4c3)n2)cn1 [Example 452]
Nav1.5 current amplification rate (%) (human Nav1.5): 2%

Nav1.1 current amplification rate (%) (human Nav1.1): 15%
SMILES: O=C(Cn1nc(-c2ccc(C(F)(F)F)nc2)ccc1=O)Nc1ccc2ocnc2c1 [Example 453]
Nav1.5 current amplification rate (%) (human Nav1.5): 1%

Nav1.1 current amplification rate (%) (human Nav1.1): 157%
SMILES: O=C(Cn1nc(-c2cc(Cl)cs2)ccc1=O)Nc1ccc2ocnc2c1 [Example 454]
Nav1.5 current amplification rate (%) (human Nav1.5): 35%

Nav1.1 current amplification rate (%) (human Nav1.1): 131%
SMILES: Cc1ccc(-c2ccc(=O)n(CC(=O)Nc3ccc4ocnc4c3)n2)s1 [Example 455]
Nav1.5 current amplification rate (%) (human Nav1.5): 21%

Source: US20220347175A1, “PYRIDAZINONE DERIVATIVE” (Sumitomo Dainippon Pharma Co., Ltd., priority 2018, published 2022)
